The source of these data is patent US4540696A, “1-Piperazinyl 4-phenylquinazoline compounds having antidepressant properties and drugs containing same” (Sanofi S.A., priority 1982, dated 1985).

Series [1] is described as follows: Pharmacological trials on the central nervous system (tests A to E, overall statement). Format: in vivo, female mice, CDI (Charles Rivers, France). Particulars: overall statement on Table II. On the procedure: The products according to the invention have been subjected to pharmacological trials with a view to determining their activity on the central nervous system.
The various tests to which the products have been subjected will be indicated hereinbelow. In all cases, the products under study were administered per os.

Series [2] has as its system ptosis induced by reserpine. Kind of series: Antagonism of ptosis induced by reserpine. Format: in vivo, female mouse, CDI (Charles Rivers, France). The conditions noted are these: reserpine 2 mg/kg intravenous, 1 hour; for ED50: Mus musculus, po, per os, read-out: Antagonism of ptosis induced by reserpine, ED 50. The method, then:
The majority of antidepressants antagonize the ptosis induced by reserpine. This test described by Gouret [Journal de Pharmacologie (Paris), 1973, 4(1), 105-128] was made in the female mouse, CDI (Charles Rivers, France) weighing from 18 to 23 g. The reserpine causes a ptosis 1 hour after its intravenous administration; certain antidepressants, particularly the imipraminics, oppose this ptosis.
The following protocol has been chosen:
The substances to be studied were administered per os to batches of 10 mice. The reserpine was administered simultaneously by the intravenous route at the dose of 2 mg/kg. 1 hour after the administration of reserpine, the number of animals not presenting ptosis is noted.

A further series is described as follows: Toxicity. Particulars: per os; for Toxicity: in words (atoxic at the stated dose). The series is classed as in vivo.
The test system of series [3] is hypothermia induced by reserpine. Kind of series: Antagonism of the hypothermia induced by reserpine. Format: in vivo, female mice, CDI (Charles Rivers, France). Particulars: reserpine 5 mg/kg i.p., 4 hours. On the procedure:
The majority of antidepressants antagonize the hypothermia induced by reserpine. This test was carried out according to the method described by HINO et Coll [Chem Pharm Bull 28 (9), 2618-2622, 1980] on female mice, CDI (Charles Rivers, France) weighing from 18 to 23 g.
(§1) The following protocol was chosen:
The substances to be studied are administered per os to batches of 10 mice, the controls receive the solvent along, simultaneously, the reserpine is administered i.p. at the dose of 5 mg/kg. The temperature of each animal is taken immediately before administration of the products to be tested and 4 hours afterwards. For each animal, the difference in temperature before and after treatment is calculated. The results are expressed in percentage of antagonism of the hypothermia observed in the controls.

For series [4], the system named is tremors induced by oxotremorine. Kind of series: Antagonism of the tremors induced by oxotremorine. The series is classed as in vivo, female mice, CDI (Charles Rivers, France). Particulars: Mus musculus, po, 0.5 h; per os; oxotremorine 1 mg/kg per os at 60 mins., read 30 mins. later; read-out: Antagonism of oxotremorine, ED 50. The method, then:
This test was carried out on female mice, CDI (Charles Rivers, France) weighing from 18 to 23 g.
as §1
The products to be studied are administered at time 0 by the oral route to batches of 10 mice. At time 60 mins., the oxotremorine is administered per os at the dose of 1 mg/kg.

The next series deals with toxicity of yohimbine. In words: Potentialization of the toxicity of yohimbine. Format: in vivo, female mice, CDI (Charles Rivers, France). The conditions noted are these: Mus musculus, po, 18 h, read-out: Potentialization of yohimbine, ED 50. The method, then: The majority of antidepressants potentialize the toxicity of yohimbine. This test was carried out according to the method described by MALICK (in Antidepressants: Neurochemical Behavioural and Clinical Perspectives, eds S. J. Enna, J. B. Malick, E. Richelson, Raven Press, New York, pages 141-153) on female mice, CDI (Charles Rivers, France).
The substances to be studied are administered per os to batches of 10 mice. The yohimbine is administered i.p. 1 hour later at the dose of 30 mg/kg. Mortality is noted 18 hours later.

The nature of series [5]: Porsolt test (despair reaction, reduction in immobilization time). Format: in vivo, female mouse, CDI (Charles Rivers, France). Particulars: per os, 1 hour before test. The method, then:
This test was carried out in the female mouse, CDI (Charles Rivers, France) weighing from 18 to 23 g, according to the method described by Porsolt (Archives Internationales de Pharmacologie, 1977, 229, 327-336).
The principle of this test is as follows: when a mouse is placed in a narrow recipient, filled with water, it struggles and then, after 2 to 4 minutes, becomes still and floats on its stomach, its back rounded and its rear paws brought underneath its body; it makes only the few movements to enable it to hold its head out of the water. This is the so-called despair reaction.
Certain psychotherapeutics, particularly antidepressants, lengthen the time during which the mouse struggles.
as §1
The products to be studied were administered orally to batches of 10 mice. 1 hour later, the animals are placed in a narrow receipient (10×10×10 cm), filled with water up to a height of 6 cm, the temperature of the water being 24° C. The animals are left in the water for 6 minutes and the time during which the animal remains immobile between the second and the sixth minute is measured--the shorter the time, the more the substance is active.
The results are expressed as the reduction in the immobilization time with respect to controls.

Where [6] appears, read: 10 mg/kg, ** p < 0.01 (all but 40 460, which has *).
Where [7] appears, read: at 10 mg/kg per os, ** p < 0.01.

Structures are written as SMILES.

Turning to `OC1CCN(c2nc(-c3ccccc3Cl)c3cc(Cl)ccc3n2)CC1` [40 331, 6-chloro 4-(2-chlorophenyl) 2-(4-hydroxy 1-piperidinyl) quinazoline, reference compound], in series [1], the “Activity on the tests carried out” value is “virtually inactive”. In addition, in series [2] (at 100 mg/kg per os), the “Antagonism of ptosis induced by reserpine, percentage” value turned out to be 0%. In addition, in “Toxicity”, the Toxicity entry is reported as “Atoxic at 500 mg/kg”. Besides, in series [3] (at 100 mg/kg per os), the “Antagonism of hypothermia induced by reserpine, percentage of antagonism” value (“Antagonism … percentage of antagonism” below) is given as -20%.
In the case of `CN1CCN(c2nc(-c3ccccc3Cl)c3cc(Cl)ccc3n2)CC1` [40 460], the ED50 in series [4] was found to be 142 mg/kg; with toxicity of yohimbine, 5.4 mg/kg; in series [2], 2.1 mg/kg. Also, in the series “Toxicity”, the “Toxicity: LD 80” value came to 1000 mg/kg. Moreover, the “Porsolt test: reduction in the immobilization time with respect to controls” value (shortened to “Porsolt test: reduction”) in series [5] (setting [6]) was -11%. In addition, the “Antagonism … percentage of antagonism” value in series [3] (at 20 mg/kg per os, ** p < 0.01) is listed as “+71%”.
For `CN1CCN(c2nc(-c3ccccc3F)c3cc(Cl)ccc3n2)CC1` [40 468], the ED50 in series [4] stood at 50 mg/kg; in the series on toxicity of yohimbine, 1.65 mg/kg; in series [2] it was 0.98 mg/kg. For the same molecule, in “Toxicity”, the Toxicity entry was “Atoxic at 1 g/kg”. Besides, the “Porsolt test: reduction” value in series [5] (setting [6]) is -61%. Also, the “Antagonism … percentage of antagonism” value in series [3] (setting [7]) is reported as “+73%”.
Regarding `CN1CCN(c2nc(-c3ccccc3Cl)c3cc([N+](=O)[O-])ccc3n2)CC1` [40 498, 2-(1-methyl 4-piperazinyl) 4-(2-chlorophenyl) 6-nitro quinazoline], the figures for the ED50 (in series [4]; in the series with toxicity of yohimbine; in series [2]) were 43.5 mg/kg, 7.8 mg/kg and 2.8 mg/kg, respectively. Besides, in the series “Toxicity”, the Toxicity entry was “Atoxic at 1 g/kg”. In series [5] (setting [6]), the “Porsolt test: reduction” value is -31%. Also, in series [3] (setting [7]), the “Antagonism … percentage of antagonism” value was “+68%”.
Consider `Fc1ccccc1-c1nc(N2CCNCC2)nc2ccc(Cl)cc12` [41 125], for which the ED50 in series [4] was determined as 9.5 mg/kg; in the series on toxicity of yohimbine, 0.74 mg/kg; in series [2] it was 0.48 mg/kg. Moreover, in “Toxicity”, the “Toxicity: LD 40” value turned out to be 1000 mg/kg. Also, the “Porsolt test: reduction” value in series [5] (5 mg/kg, ** p < 0.01) is -46. The “Antagonism … percentage of antagonism” value in series [3] (setting [7]) is reported as “+81%”.
Regarding `CCCN1CCN(c2nc(-c3ccccc3F)c3cc(Cl)ccc3n2)CC1` [41 128], the ED50 in the series on toxicity of yohimbine is 1.7 mg/kg; in series [2], 6.2 mg/kg. Further, the Toxicity result in the series “Toxicity” was “Atoxic at 1 g/kg”. The “Porsolt test: reduction” value in series [5] (5 mg/kg, ** p < 0.01) is listed as -31. Also, the “Antagonism … percentage of antagonism” value in series [3] (setting [7]) is “+62%”.
As for `CN(C)CCCN1c2ccccc2CCc2ccccc21` [Imipramine, reference compound], the ED50 is 12 mg/kg in series [4] and 2.4 mg/kg in series [2]. The “Porsolt test: reduction” value in series [5] (setting [6]) is recorded as -30%. The “Antagonism … percentage of antagonism” value in series [3] (setting [7]) is given as “+59%”.
